# Assay results reported in patent US9283235B2, “Intermittent lowering of cortisol as treatment of clinical conditions associated with abnormal concentrations of cortisol in animals” (Stegram Pharmaceuticals Limited, priority 2001, dated 2016).
# “And” between values parts separate entries of the source, which are not always exact repeats. Equal values may be shown once.
# Key:
# [1] = tested on: ACTH stimulation of the adrenal gland; assay: ACTH stimulation test, serum cortisol in dogs; type: in vivo, dog
# Method: Dogs were entered into the study sequentially over a period of 2-3.5 years Owners were informed about the experimental nature of the treatment and signed a consent form. The ACTH stimulation test was performed by collection of serum samples before and one hour after intravenous injection of ACTH (Synacthen, Alliance) at a dose of 0.125 mg for dogs weighing less than 15 kg, and 0.25 mg for dogs weighing greater than 15 kg. Cortisol concentration was measured by radioimmunoassay previously validated for dogs Blood for endogenous ACTH was collected into a cooled EDTA tube in ice, centrifuged immediately and the frozen at −20° C. Abdominal ultrasound was performed by an experienced board-certified radiologist and adrenal thickness was assessed as a single measurement made perpendicular to the long axis and was defined as the greatest dorso-ventral dimension.
# Dogs with Cushing's disease were given an ACTH stimulation test at 12, 35 and 81 days (average) during a course of treatment with a single daily dose of trilostane of 5-20 mg/kg. […] Thus, trilostane has blunted ACTH stimulation of the adrenal gland.
# [2] = tested on: serum cortisol; assay: Canine serum cortisol over 24 hours pre and post trilostane; type: in vivo, dog; settings: for Canine serum cortisol, post: individual dogs; for Canine serum cortisol, post, Mean: mean of dogs
# Text: With this level of lowering there was relief of the symptoms of the Cushing's disease.
# [3] = tested on: hypothalamic-pituitary-adrenal axis; assay: Combined dexamethasone suppression / TRH stimulation test, serum cortisol in horses; type: in vivo, horse
# Method: The ability of intermittent administration of Trilostane to block adrenal steroidogenesis was assessed in twenty horses (mean age 21, SD 5.7 years) with equine Cushing's disease. The combined dexamethasone suppression thyrotropin releasing hormone (TRH) stimulation test (17 horses) or TRH stimulation test (3 horses) was used as a standard test of function of the hypothalamic-pituitary-adrenal axis. Serum samples for cortisol analysis were collected via indwelling catheter at 4-hourly intervals over 24 hours on each of the test periods. These were before treatment then at 210 minutes (30 min after I mg i.v. TRH) and 22 hours after […] dexamethasone i.m. Affected horses were treated with 0.4 to 1 mg/kg, (mean 0.5 mg/kg) trilostane administered once daily in feed for a period of 30 days. After 30 days endocrine testing was repeated. Serum cortisol before and after treatment was compared by paired t-test.
# This is similar to the post ACTH stimulation in the dogs. The adrenal gland is not responding to stimulation by pituitary hormone in the same way as before trilostane treatment.
# [4] = Table 2, individual horses, after trilostane
compound,measurement,setting,value
"CC12CCC3C(CC[C@@]45O[C@@H]4C(=O)C(C#N)CC35C)C1CC[C@@H]2O (stereo partly drawn) [Trilostane, 2α-cyano-4α,5α-epoxyandrostan-17β-ol-3-one]",% pre Trilostane Cortisol,[1]; 12 days of Trilostane treatment,−29.7%
same,Post ACTH stimulation test serum Cortisol,"[1]; 12 days of Trilostane treatment (5-10 mg/k), 53 dogs",249 nmol/L
same,% pre Trilostane Cortisol,[1]; 35 days of Trilostane treatment,−30.0%
same,Post ACTH stimulation test serum Cortisol,"[1]; 35 days of Trilostane treatment (5-10 mg/k), 59 dogs",231 nmol/L
same,% pre Trilostane Cortisol,[1]; 81 days of Trilostane treatment,−27.3%
same,Post ACTH stimulation test serum Cortisol,"[1]; 81 days of Trilostane treatment (5-10 mg/k), 48 dogs",214 nmol/L
same,Serum cortisol post ACTH as % of the original value,"[1]; first re-examination, all dogs",less than 61%
same,"Cortisol response to ACTH, in words","[1]; single daily dose 5-20 mg/kg, vs non-treatment controls",markedly reduced
same,"Serum cortisol lowering after daily dose, in words",[2]; dogs with Cushing's disease,reduced significantly at 4 hrs
same,"Canine serum cortisol, post","[2]; 4 hrs after dose, Trilostane 5–10 mg/k over 4–21 days",5 nmol/l (4×) and 62 nmol/l (2×) and 10 nmol/l and 60 nmol/l and 57 nmol/l and 63 nmol/l
same,"Canine serum cortisol, post",[2]; 8 hrs after dose,5 nmol/l (4×) and 48 nmol/l and 171 nmol/l and 51 nmol/l and 262 nmol/l and 183 nmol/l and 315 nmol/l
same,"Canine serum cortisol, post",[2]; 12 hrs after dose,5 nmol/l and 75 nmol/l and 83 nmol/l and 66 nmol/l (2×) and 158 nmol/l and 197 nmol/l and 143 nmol/l and 164 nmol/l and 318 nmol/l
same,"Canine serum cortisol, post",[2]; 19 hrs after dose,52 nmol/l and 101 nmol/l and 92 nmol/l and 63 nmol/l and 85 nmol/l and 183 nmol/l (3×) and 139 nmol/l and 230 nmol/l
same,"Canine serum cortisol, post",[2]; 20 hrs after dose,166 nmol/l and 105 nmol/l and 86 nmol/l and 97 nmol/l and 61 nmol/l and 154 nmol/l and 144 nmol/l (2×) and 108 nmol/l and 199 nmol/l
same,"Canine serum cortisol, post",[2]; 24 hrs after dose,117 nmol/L and 109 nmol/L and 51 nmol/L and 74 nmol/L and 66 nmol/L and 171 nmol/L and 144 nmol/L and 131 nmol/L and 154 nmol/L and 246 nmol/L
same,"Canine serum cortisol, post",[2]; 28 hrs after dose,147 nmol/L and 112 nmol/L and 75 nmol/L and 86 nmol/L and 53 nmol/L and 124 nmol/L and 190 nmol/L and 174 nmol/L and 246 nmol/L and 313 nmol/L
same,"Canine serum cortisol, post, Mean",[2]; 4 hrs,33 nmol/L
same,"Canine serum cortisol, post, Mean",[2]; 8 hrs,105 nmol/L
same,"Canine serum cortisol, post, Mean",[2]; 12 hrs,130 nmol/L
same,"Canine serum cortisol, post, Mean",[2]; 19 hrs,131 nmol/L
same,"Canine serum cortisol, post, Mean",[2]; 20 hrs,126 nmol/L
same,"Canine serum cortisol, post, Mean",[2]; 24 hrs,126 nmol/L
same,"Canine serum cortisol, post, Mean",[2]; 28 hrs,152 nmol/L
same,Serum cortisol Post-Treatment Base,[3]; [4],160 and 236 and 116 and 254 and 149 and 127 and 112 and 136 and 65 and 202 and 81 and 100 and 209 and 189 and 121 and 288
same,Serum cortisol Post-Treatment Post Dex,[3]; [4],170 and 149 and 118 and 113 (2×) and 82 and 81 (2×) and 163 and 50 and 101 and 138 and 47 and 1 and 153
same,Serum cortisol Post-Treatment Post TRH,[3]; [4],114 and 316 and 167 and 193 and 93 and 79 and 139 and 158 and 170 and 88 and 150 and 117 and 100 (2×) and 138 and 224
same,% change,"[3]; Table 2, individual horses, pre vs post treatment",−60.5% and −69% and −8% and −84% and −82% and −16% and −5% and −27% and −233% and −50% and −1% and −10% and 18% and −57% and 1% and −15.8%
same,"Different, pre-post: % TRH resp","[3]; Table 5, individual horses",60% and 69% and 8% and 84% and 52% and 16% (2×) and 5% and 27% and 152% and 50% and 1% and 11% and −18% and 57% and 37%
same,"Different, pre-post: Base","[3]; Table 5, individual horses",-33 nmol/L and -105 nmol/L and 15 nmol/L and -118 nmol/L and -124 nmol/L and -23 nmol/L and 20 nmol/L and -8 nmol/L and 8 nmol/L and 29 nmol/L and 5 nmol/L and 2 nmol/L and 65 nmol/L and -18 nmol/L and 22 nmol/L and -95 nmol/L
same,"Different, pre-post: post Dex","[3]; Table 5, individual horses",−20 nmol/l and 12 nmol/l and 4 nmol/l and −10 nmol/l and 7 nmol/l (2×) and −16 nmol/l and −17 nmol/l and 107 nmol/l and 5 nmol/l and 15 nmol/l and −40 nmol/l and 23 nmol/l and 60 nmol/l and −67 nmol/l
same,"Different, pre-post: post TRH","[3]; Table 5, individual horses",53 nmol/L and -50 nmol/L and 32 nmol/L and 27 nmol/L and 49 nmol/L and 2 nmol/L and 31 nmol/L and 25 nmol/L and 66 nmol/L and 130 nmol/L and 10 nmol/L and 8 nmol/L and -19 nmol/L and 84 nmol/L and 71 nmol/L and -43 nmol/L
